Read-outs that look alike come from different tables or passages of the source.
Target: T1, human 5-HT2B receptor (Homo sapiens, UniProt P41595)
T1 construct: expressed in transfected cells
Test: competition assay: inhibition of binding of [3H]5-hydroxytryptamine to the cloned human 5-HT2B receptor (cell membranes)

T1 sequence (P41595 whole entry): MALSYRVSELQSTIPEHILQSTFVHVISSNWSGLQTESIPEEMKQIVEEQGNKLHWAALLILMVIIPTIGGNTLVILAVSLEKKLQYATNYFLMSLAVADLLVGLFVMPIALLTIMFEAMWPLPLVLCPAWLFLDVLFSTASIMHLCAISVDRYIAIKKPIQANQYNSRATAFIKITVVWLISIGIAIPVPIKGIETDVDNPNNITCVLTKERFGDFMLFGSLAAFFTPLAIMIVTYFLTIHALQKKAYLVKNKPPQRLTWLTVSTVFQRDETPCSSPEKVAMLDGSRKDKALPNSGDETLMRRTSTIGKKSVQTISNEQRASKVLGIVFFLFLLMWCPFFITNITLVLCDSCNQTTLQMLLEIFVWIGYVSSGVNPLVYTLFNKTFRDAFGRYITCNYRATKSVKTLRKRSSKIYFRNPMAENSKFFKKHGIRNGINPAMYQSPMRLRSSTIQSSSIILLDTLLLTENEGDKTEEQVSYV

Q: With `O=C(CCCN1CCC2(CC1)C(=O)NCN2c1ccccc1)c1ccc(F)cc1` [spiperone, 8-[4-(4-fluorophenyl)4-oxobutyl]-1-phenyl-1,3,8-triazaspiro[4,5]decan-4-one] as the compound, how does the IC50 (read-out: IC50 (concentration which displaces or inhibits the binding of 50% of the labeled 5-hydroxytryptamine)) read?
A: 691 nM

Q: `c1ccc2c(N3CCNCC3)cccc2c1` [1-(1-naphthyl)piperazine, 1-(1-Naphthyl)piperazine] was tested. Which IC50 did it give?
A: 2.41 nM

Q: How did the IC50 turn out when `CC(N)Cc1c[nH]c2ccc(O)cc12` (stereo not drawn) [α-methyl-5-hydroxytryptamine, 3-(2-aminopropyl)-1H-indol-5-ol] was run?
A: 11.8 nM

— US5698444A (Eli Lilly and Company, priority 1993, dated 1997)
